Assay [1] deals with PDE3 (from bovine aorta). The experiment in a line: PDE3 inhibition (FP or SPA general type of assay). Format: biochemical. The settings on record: in the particular assays used. From the text:
PDE3 can be purified from bovine aorta as described by H. Coste and P. Grondin, “Characterisation of a novel potent and specific inhibitor of type V phosphodiesterase”, Biochem. Pharmacol., 1995, 50, 1577-1585.
The ability of compounds to inhibit catalytic activity at PDE4B or 4D (human recombinant), PDE3 (from bovine aorta), PDE5 (human recombinant) or PDE6 (from bovine retina) can optionally be determined by Scintillation Proximity Assay (SPA) in a 96-well format.
Test compounds (as a solution in DMSO, suitably about 2 microlitre (ul) volume of DMSO solution) are preincubated at ambient temperature (room temperature, e.g. 19-23° C.) in Wallac Isoplates (code 1450-514) with PDE enzyme in 50 mM Tris-HCl buffer pH 7.5, 8.3 mM MgCl2, 1.7 mM EGTA, 0.05% (w/v) bovine serum albumin for 10-30 minutes (usually 30 minutes). […] Bound radioactive product is measured using a WALLAC TRILUX 1450 Microbeta scintillation counter. […] Curves are analysed using ActivityBase and XLfit (ID Business Solutions Limited, 2 Ocean Court, Surrey Research Park, Guildford, Surrey GU2 7QB, United Kingdom). Results are expressed as pIC50 values.
The compound of the invention (e.g. as prepared in Example 1) has also been tested for PDE3, PDE5 and PDE6 inhibition, e.g. using (independently for each PDE type) either a Fluorescence Polarisation (FP) general type of assay or using an SPA general type of assay.

The subject of assay [2] is TNF-α (TNF-alpha) production in Human Whole Blood. The experiment in a line: Inhibition of TNF-alpha production in Human Whole Blood (MSD assay). The format is cell-based. On the procedure:
This is an optional supplementary test, e.g. for potentially orally-administrable PDE4 inhibitors. Also, as the assay may measure the effect of PDE4 inhibitors after loss by protein binding, it might possibly also be relevant to externally-topically-administrable PDE4 inhibitors as protein-binding-loss of compound is possible during transport through the skin.
Test compounds are prepared as a ca. 10 mM stock solution in DMSO and a dilution series prepared in DMSO with 8 successive 3-fold dilutions, either directly from the 10 mM stock solution or from a more dilute solution in DMSO. The compound is added to assay plates using a Biomek Fx liquid handling robot.
Heparinised blood drawn from normal volunteers is dispensed (ca. 100 μl=ca. 100 ul) into microtitre plate wells containing ca. 0.5 or ca. 1.0 μl (ul, microlitres) of an appropriately diluted test compound solution. […] Plasma TNFα content is determined by electrochemiluminescence assay using the MSD technology (see below), the IGEN technology (see below) or by enzyme linked immunosorbant assay (ELISA) (see below). […]
For the Whole Blood assay, plates are washed after 2 hours shaking with a Skanwasher 300 version B (Skatron Instruments AS. PO Box 8, N-3401 Lier, Norway). […] About 150 μl (ul) of Read Buffer T (2×) is added to the plates, which are then read on a MSD Sector 6000. […]

The values below come from US20080255186A1, “Pyrazolo[3,4-B]Pyridine Compound, and Its Use as a Pde4 Inhibitor” (priority 2005, published 2008).

Where “and” joins values, the source holds several entries; their conditions need not be identical. Equal entries are not always repeated.

In the case of `CCc1nc2c(cnn2CC)c(NC2CCOCC2)c1CNC(=O)c1cc(C)no1` [Example 1, N-{[1,6-diethyl-4-(tetrahydro-2H-pyran-4-ylamino)-1H-pyrazolo[3,4-b]pyridin-5-yl]methyl}-3-methyl-5-isoxazolecarboxamide], in assay [1], the “PDE4B pIC50 compared with PDE3 pIC50 (selectivity)” value is “inhibits PDE4B more strongly than it inhibits PDE3, PDE5 and PDE6”. Moreover, the IC50 in assay [2] (Homo sapiens, n = about 3 or 4, LPS-stimulated, read-out: Whole Blood, Mean pIC50 (MSD assay) (converted)) was about 0.398 nM. Besides, the “Whole Blood individual pIC50 test values (MSD assay)” value in assay [2] (individual measurements) was ~9.19 and ~9.50 (2×) and > 9.82.
